Measured values as given in PubChem BioAssay (NCI).
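A five-concentration, 48-hour dose response in 96-well plates underlies each endpoint, interpolated linearly between surrounding concentrations. TGI denotes the concentration required for complete inhibition of growth.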

Tests used:
Experiment in all cases: inhibition of tumour cell growth, NCI panel, 48 h
SK-MEL-28 melanoma = tested on: SK-MEL-28 melanoma
SK-MEL-2 melanoma = tested on: SK-MEL-2 melanoma
TK-10 renal = tested on: TK-10 renal
UO-31 renal = tested on: UO-31 renal
BT-549 breast = tested on: BT-549 breast
COLO 205 colon = tested on: COLO 205 colon
SN12C renal = tested on: SN12C renal
HCT-15 colon = tested on: HCT-15 colon
IGROV1 ovarian = tested on: IGROV1 ovarian
UACC-62 melanoma = tested on: UACC-62 melanoma
MDA-MB-231 breast = tested on: MDA-MB-231 breast
OVCAR-3 ovarian = tested on: OVCAR-3 ovarian
OVCAR-8 ovarian = tested on: OVCAR-8 ovarian
SNB-75 CNS = tested on: SNB-75 CNS
A549 NSCLC = tested on: A549 NSCLC
RPMI-8226 leukemia = tested on: RPMI-8226 leukemia
NCI-H522 lung = tested on: NCI-H522 lung
HS 578T breast = tested on: HS 578T breast
T-47D breast = tested on: T-47D breast
SK-OV-3 ovarian = tested on: SK-OV-3 ovarian
A498 renal = tested on: A498 renal
ACHN renal = tested on: ACHN renal
SNB-19 CNS = tested on: SNB-19 CNS
UACC-257 melanoma = tested on: UACC-257 melanoma
SF-268 CNS = tested on: SF-268 CNS
HOP-62 NSCLC = tested on: HOP-62 NSCLC
SF-295 CNS = tested on: SF-295 CNS
DU-145 prostate = tested on: DU-145 prostate
NCI-H460 lung = tested on: NCI-H460 lung
NCI-H23 lung = tested on: NCI-H23 lung
EKVX NSCLC = tested on: EKVX NSCLC
M14 melanoma = tested on: M14 melanoma
OVCAR-5 ovarian = tested on: OVCAR-5 ovarian
HCT-116 colon = tested on: HCT-116 colon
OVCAR-4 ovarian = tested on: OVCAR-4 ovarian
786-0 renal = tested on: 786-0 renal
MDA-N = tested on: MDA-N
HOP-92 NSCLC = tested on: HOP-92 NSCLC
KM12 colon = tested on: KM12 colon
K-562 leukemia = tested on: K-562 leukemia
CAKI-1 renal = tested on: CAKI-1 renal
MCF7 breast = tested on: MCF7 breast
SK-MEL-5 melanoma = tested on: SK-MEL-5 melanoma
SF-539 CNS = tested on: SF-539 CNS
MDA-MB-435 = tested on: MDA-MB-435
SW-620 colon = tested on: SW-620 colon
U251 CNS = tested on: U251 CNS
HCC-2998 colon = tested on: HCC-2998 colon
PC-3 prostate = tested on: PC-3 prostate
RXF 393 renal = tested on: RXF 393 renal
MALME-3M melanoma = tested on: MALME-3M melanoma
HT29 colon = tested on: HT29 colon
NCI-H226 lung = tested on: NCI-H226 lung
NCI/ADR-RES ovarian = tested on: NCI/ADR-RES ovarian
LOX IMVI melanoma = tested on: LOX IMVI melanoma

## C/C(=N\NC1=NCCN1)c1cn(C2=NCCN2)nc1C
SK-MEL-28 melanoma
  TGI: > 100 µM
SK-MEL-2 melanoma
  TGI: > 100 µM
TK-10 renal
  TGI: > 100 µM
UO-31 renal
  TGI: > 100 µM
BT-549 breast
  TGI: > 100 µM
COLO 205 colon
  TGI: > 100 µM
SN12C renal
  TGI: > 100 µM
HCT-15 colon
  TGI: > 100 µM
IGROV1 ovarian
  TGI: > 100 µM
UACC-62 melanoma
  TGI: > 100 µM
MDA-MB-231 breast
  TGI: > 100 µM
OVCAR-3 ovarian
  TGI: > 100 µM
OVCAR-8 ovarian
  TGI: > 100 µM
SNB-75 CNS
  TGI: > 100 µM
A549 NSCLC
  TGI: > 100 µM
RPMI-8226 leukemia
  TGI: > 100 µM
NCI-H522 lung
  TGI: > 100 µM
HS 578T breast
  TGI: > 100 µM
T-47D breast
  TGI: > 100 µM
SK-OV-3 ovarian
  TGI: > 100 µM
A498 renal
  TGI: > 100 µM
ACHN renal
  TGI: > 100 µM
SNB-19 CNS
  TGI: > 100 µM
UACC-257 melanoma
  TGI: > 100 µM
SF-268 CNS
  TGI: > 100 µM
HOP-62 NSCLC
  TGI: > 100 µM
SF-295 CNS
  TGI: > 100 µM
DU-145 prostate
  TGI: > 100 µM
NCI-H460 lung
  TGI: > 100 µM
NCI-H23 lung
  TGI: > 100 µM
EKVX NSCLC
  TGI: > 100 µM
M14 melanoma
  TGI: > 100 µM
OVCAR-5 ovarian
  TGI: > 100 µM
HCT-116 colon
  TGI: > 100 µM
OVCAR-4 ovarian
  TGI: > 100 µM
786-0 renal
  TGI: > 100 µM
MDA-N
  TGI: > 100 µM
HOP-92 NSCLC
  TGI: > 100 µM
KM12 colon
  TGI: > 100 µM
K-562 leukemia
  TGI: > 100 µM
CAKI-1 renal
  TGI: > 100 µM
MCF7 breast
  TGI: > 100 µM
SK-MEL-5 melanoma
  TGI: > 100 µM
SF-539 CNS
  TGI: > 100 µM
MDA-MB-435
  TGI: > 100 µM
SW-620 colon
  TGI: > 100 µM
U251 CNS
  TGI: > 100 µM
HCC-2998 colon
  TGI: > 100 µM
PC-3 prostate
  TGI: > 100 µM
RXF 393 renal
  TGI: > 100 µM
MALME-3M melanoma
  TGI: > 100 µM
HT29 colon
  TGI: > 100 µM
NCI-H226 lung
  TGI: > 100 µM
NCI/ADR-RES ovarian
  TGI: > 100 µM

## Clc1ccc(CSc2ncnc3c2ncn3C2CCCCO2)cc1 (stereo not drawn)
SK-MEL-28 melanoma
  TGI: 48.8 µM
SK-MEL-2 melanoma
  TGI: 32 µM
TK-10 renal
  TGI: 60.4 µM
UO-31 renal
  TGI: 4.36 µM
BT-549 breast
  TGI: 68.2 µM
COLO 205 colon
  TGI: 56.9 µM
SN12C renal
  TGI: 38.7 µM
HCT-15 colon
  TGI: > 100 µM
IGROV1 ovarian
  TGI: > 100 µM
UACC-62 melanoma
  TGI: 30 µM
MDA-MB-231 breast
  TGI: 86.3 µM
OVCAR-3 ovarian
  TGI: 32.5 µM
LOX IMVI melanoma
  TGI: 36.3 µM
OVCAR-8 ovarian
  TGI: 71.5 µM
SNB-75 CNS
  TGI: 58.1 µM
A549 NSCLC
  TGI: > 100 µM
RPMI-8226 leukemia
  TGI: 39.4 µM
NCI-H522 lung
  TGI: 33.7 µM
HS 578T breast
  TGI: 76.4 µM
T-47D breast
  TGI: 57.8 µM
SK-OV-3 ovarian
  TGI: 55.6 µM
A498 renal
  TGI: 31.9 µM
ACHN renal
  TGI: 29.8 µM
SNB-19 CNS
  TGI: > 100 µM
UACC-257 melanoma
  TGI: 24.9 µM
SF-268 CNS
  TGI: 77.4 µM
HOP-62 NSCLC
  TGI: 45.7 µM
SF-295 CNS
  TGI: 36.7 µM
DU-145 prostate
  TGI: > 100 µM
NCI-H460 lung
  TGI: 36.7 µM
NCI-H23 lung
  TGI: 64.8 µM
EKVX NSCLC
  TGI: 50.1 µM
M14 melanoma
  TGI: 31 µM
OVCAR-5 ovarian
  TGI: > 100 µM
HCT-116 colon
  TGI: 53.9 µM
OVCAR-4 ovarian
  TGI: > 100 µM
786-0 renal
  TGI: 56.2 µM
MDA-N
  TGI: 43.8 µM
HOP-92 NSCLC
  TGI: 89.2 µM
KM12 colon
  TGI: 46.9 µM
K-562 leukemia
  TGI: 66.1 µM
CAKI-1 renal
  TGI: > 100 µM
MCF7 breast
  TGI: 83.7 µM
SK-MEL-5 melanoma
  TGI: 22.9 µM
MDA-MB-435
  TGI: 38.1 µM
SW-620 colon
  TGI: > 100 µM
U251 CNS
  TGI: 44.9 µM
HCC-2998 colon
  TGI: 38.1 µM
PC-3 prostate
  TGI: 74.7 µM
RXF 393 renal
  TGI: 80.2 µM
MALME-3M melanoma
  TGI: 38.4 µM
HT29 colon
  TGI: 35.5 µM
NCI-H226 lung
  TGI: 76.7 µM
NCI/ADR-RES ovarian
  TGI: 63.2 µM
